“Also recorded” adds a separate entry of the source.
Columns and labels:
[1] = system: replicon variants with reduced susceptibility to HCV-796, including C316Y; assay: Susceptibility of HCV-796 resistant replicons to SCH 503034; type: cell-based; details: 72 hours, vs wild-type replicon
Protocol: The antiviral activity of SCH 503034 against the replicon variants that have shown reduced susceptibility to HCV-796 is evaluated. Briefly, the replicon-containing cells are seeded in 96-well plates at a subconfluent density (7000 cells/well) in a medium containing 2% FBS without G418. SCH 503034 solubilized with 100% dimethylsulfoxide (DMSO) is prepared in a […], 2-fold dilution series, with a final DMSO concentration of 0.5% and a final volume of […]. The final concentrations for SCH 503034 are […], 6.3, 12.5, 25, 50, 100, 200, 400, 800, 1600 and 3200 nM. The plate is incubated for 72 hours at 37° C. and 5% CO2 before quantification of HCV and GAPDH RNAs.

[2] = system: replicons containing HCV NS3 protease mutations T54A, A156S, A156T, V170A; assay: HCV-796 cross-resistance study, 3-day replicon assay on replicons with NS3 protease resistance mutations; type: cell-based; details: V170A vs wild type
Protocol: Replicon cells are seeded at ˜5000 cells/well in 96-well collagen I-coated Biocoat plates (Becton Dickinson). Twenty-four hrs post-seeding, inhibitors diluted in DMSO are added to replicon cells (Huh-7 cells). The final concentrations of DMSO and fetal bovine serum are 1% and 10%, respectively. SCH 503034 is serially diluted at 1:2 for a 10-point titration. To each concentration of the SCH 503034, the second inhibitor, HCV-796 or rhIFN-α2b control is titrated in. IFN-α is serially diluted at 1:3, whereas HCV RNA polymerase inhibitor, HCV-796, is serially diluted at 1:2. […] All samples are tested in triplicate. Media and inhibitors are refreshed daily for 3 days at which point the cells are washed with PBS and lysed in 1× cell lysis buffer (Ambion cat #8721). The replicon RNA level is measured using real time PCR (Taqman assay) The amplicon is located in 5B. The PCR primers are: 5B.2F, ATGGACAGGCGCCCTGA (SEQ ID NO:1) and 5B.2R, […] (SEQ ID NO:2). The probe sequence is FAM-labeled CACGCCATGCGCTGCGG (SEQ ID NO:3). GAPDH RNA is used as an endogenous control and is amplified in the same reaction as NS5B (multiplex PCR) using primers and VIC-labeled probe recommended by the manufacturer (PE Applied Biosystem). […]

| SMILES | Activity of SCH 503034 on HCV-796 resistant replicons [1] | Activity of SCH 503034 on HCV-796 resistant replicons ([1]; listed as SCH-503034) | Activity of HCV-796 on SCH 503034 resistant replicon cell lines [2] |
| --- | --- | --- | --- |
| CC(C)(C)NC(=O)N[C@H](C(=O)N1C[C@H]2[C@@H]([C@H]1C(=O)NC(CC1CCC1)C(=O)C(N)=O)C2(C)C)C(C)(C)C (stereo partly drawn) [SCH 503034, (1R,5S)—N-[3-amino-1-(cyclobutylmethyl)-2,3-dioxopropyl]-3-[2(S)-[[[(1,1-dimethylethyl)amino]carbonyl]amino]-3,3-dimethyl-1-oxobutyl]-6,6-dimethyl-3-azabicyclo[3.1.0]hexan-2(S)-carboxamide] | active | equivalent inhibitory activity |  |
| CNC(=O)c1c(-c2ccc(F)cc2)oc2cc(N(CCO)S(C)(=O)=O)c(C3CC3)cc12 [HCV-796, 5-cyclopropyl-2-(4-fluoro-phenyl)-6-[(2-hydroxy-ethyl)-methanesulfonyl-amino]-benzofuran-3-carboxylic acid methylamide] |  |  | identical to that observed against the wild-type replicon; also recorded: active |
